Measurements taken from patent US20150094348A1, “GPR17-MODULATING COMPOUNDS, DIAGNOSTIC AND THERAPEUTIC USES THEREOF” (Centro Cardiologico Monzino S.p.A., priority 2010, published 2015).
Marks after values point to notes of the source that are not given here.

Experiments:
human receptor GPR17 = target: T1, human receptor GPR17 (Homo sapiens, UniProt Q13304); assay: [35S]GTPγS binding assay on membranes of 1321N1 cells transfected with human GPR17; format: biochemical; conditions: for EC50 / Emax: [35S]GTPγS binding; for EC50: 1321N1 cells expressing human GPR17, mean±SEM of three experiments; for Emax: LTC4 at 100 nM, in % (unit assumed); for % Emax vs standard: efficacy relative to LTC4 set to 100%; for effect of antagonist on concentration-response curve of the compound: in presence of cangrelor or montelukast
T1 construct: expressed in transfected cells; host or cells: human 1321N1 astrocytoma cells, calcium phosphate transfection with pcDNA3.1; plasma membranes used
T1 sequence (Q13304 29-367 limits assumed): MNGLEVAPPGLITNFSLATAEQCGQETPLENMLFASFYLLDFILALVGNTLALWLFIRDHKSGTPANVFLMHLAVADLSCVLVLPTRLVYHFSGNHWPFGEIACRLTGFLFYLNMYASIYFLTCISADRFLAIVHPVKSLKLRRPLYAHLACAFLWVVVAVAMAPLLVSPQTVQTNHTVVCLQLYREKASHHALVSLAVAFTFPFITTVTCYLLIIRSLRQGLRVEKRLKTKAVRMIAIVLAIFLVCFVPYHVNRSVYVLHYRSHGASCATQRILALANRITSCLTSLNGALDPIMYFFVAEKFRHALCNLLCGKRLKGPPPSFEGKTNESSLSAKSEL
Protocol: A—The compounds according to the invention were evaluated for their functional activity on GPR17 using a well-known assay for GPCRs, the [^35S]GTPγS binding assay, which is based on the ability of the agonist to increase radioactive GTP binding when a GPCR is activated. The antagonist activity is evaluated according to the ability to counteract the increased [^35S]GTPγS binding induced by the LTC4 reference agonist.
The activation of GPCRs by agonists stimulates the dissociation of GDP from G-protein, thus increasing GTP binding in its place. This increase in GTP binding to G-protein can be quantified in vitro with [^35S]GTPγS. The effect of GPCR activation on [^35S]GTPγS binding is catalytic, because it increases the [^35S]GTPγS binding rate rather than [^35S]GTPγS binding equilibrium. […] For some GPCRs, the binding stimulated by the agonist (ie. the difference between GTP binding in the presence and absence of the agonist) increases with time, peaks and then falls to zero; optimal increases in [^35S]GTPγS binding induced by the agonist are often obtained before equilibrium is attained, rather than at equilibrium. […] The control and transfected cells were homogenised in 5 mM Tris-HCl and 2 mM EDTA (pH 7.4) and centrifuged at 48000 g for 15 min at 4° C. The resulting pellets (plasma membranes) were washed in 50 mM Tris-HCl and 10 mM MgCl2 (pH 7.4) and stored at −80° C. until use.
The Graph-Pad Prism program was used for the analysis and graphic presentation of the [^35S]GTPγS binding data. All the data are shown as the mean±SEM of three different experiments. The data were tested for statistical significance with the paired Student's t test or analysis of variance (one-way ANOVA), as appropriate. When significant differences were observed, the Newman-Keuls multiple comparison test (one-way ANOVA) was performed. A value of P<0.05 was considered significant.

[1] = test system: oligodendrocyte precursor cells (OPCs); assay: Pro-myelinating activity assay on oligodendrocyte precursor cell (OPC) cultures (MBP-positive cells); format: cell-based, Sprague-Dawley rat; conditions: 48 h after start of treatment
Protocol: The OPCs were cultured on plates containing 24 mm slides coated with poly-D,L-ornithine in Neurobasal medium with 2% of B27 supplement (Invitrogen), L-glutamine (2 mM) and enriched with growth factors PDGF and betaFGF (10 ng/ml) to promote proliferation. In order to promote differentiation, after 24 h, the culture medium was replaced with Neurobasal with 2% B27 without growth factors and with the addition of triiodothyronine T3 (400 ng/ml).
The ability of the agonists to promote myelination was evaluated by measuring the increase in the number of cells positive for the MBP marker present in the culture compared with the control treated with the carrier alone. In particular, 48 h after treatment with the agonists, the cells were fixed in 4% paraformaldehyde in 0.1 M PBS and stained by immunocytochemistry using an antibody specific for MBP. […] The slides were mounted with Dako Fluorescent Mounting Medium (Dako, Milan) on cover slips and analysed with an inverted optical microscope (AXIOVERT 200 M, Zeiss, Milan). The images were processed and acquired with Axiovision 4.4 software, in the rhodamine fluorescence channel for MBP. The effects of the treatments on OPC myelination were quantified by manual count using ImageJ software (Wayne Rasband, Research Services Branch of the National Institute of Mental Health of Bethesda, USA).

[2] = [35S]GTPγS binding assay on 1321N1 cells transfected only with control vector pcDNA3.1; format: biochemical, human; conditions: cells transfected only with pcDNA3.1
Protocol: Human 1321N1 cells were cultured as described [Fumagalli et al., 2004, Biochem Pharmacol 68:113]. For the [^35S]GTPγS assay, 10^6 1321N1 cells were seeded on 75 cm^2 flasks and transfected by the calcium phosphate precipitation method, with the vector pcDNA3.1 containing the construct encoding for human receptor GPR17, and with the empty vector pcDNA3.1 as control [Fumagalli et al., 2004, Biochem Pharmacol 68:113].
The activation of GPCRs by agonists stimulates the dissociation of GDP from G-protein, thus increasing GTP binding in its place. This increase in GTP binding to G-protein can be quantified in vitro with [^35S]GTPγS. The effect of GPCR activation on [^35S]GTPγS binding is catalytic, because it increases the [^35S]GTPγS binding rate rather than [^35S]GTPγS binding equilibrium. Consequently, the [^35S]GTPγS binding assay is intrinsically a functional concentration-response curve, not an equilibrium binding assay [Lazareno, 1999, Methods Mol Biol 1106:231; Milligan, 2003, Trends Pharmacol Ski 24:87]. For some GPCRs, the binding stimulated by the agonist (ie. the difference between GTP binding in the presence and absence of the agonist) increases with time, peaks and then falls to zero; optimal increases in [^35S]GTPγS binding induced by the agonist are often obtained before equilibrium is attained, rather than at equilibrium. […]

| EC50 (human receptor GPR17) [nM] | Emax (human receptor GPR17) | % Emax vs standard (human receptor GPR17) | SMILES | other results |
| --- | --- | --- | --- | --- |
| 0.109 ± 0.028 | 145.6 ± 5.7 | 100.6% | COc1ccc(-n2c(SC(C)C(=O)Nc3ccccc3)nnc2-c2ccccc2OC)cc1 (centres unmarked) [(I), 2-[[5-(2-methoxyphenyl)-4-(4-methoxyphenyl)-4H-1,2,4-triazol-3-yl]thio]-N-phenylpropanamide] | effect of antagonist on concentration-response curve of the compound (human receptor GPR17): shifted to the right (increase in EC50), but no effect on efficacy was observed; effect of antagonist on concentration-response curve of the compound (human receptor GPR17; listed as I): reduction in the efficacy |
| 0.268 ± 0.009 | 161.5 ± 2.4 | 111.5** % | O=C(Nc1ccc(C(F)(F)F)cc1)N1CCC(c2nc(O)c3nnn(Cc4ccccc4Cl)c3n2)CC1 [(V), 4-[3-[(2-chlorophenyl)methyl]-6,7-dihydro-7-oxo-3H-1,2,3-triazole[4,5-d]pyrimidin-5-yl]-N-[4-(trifluoromethyl)phenyl]-1-piperidinecarboxamide] | – |
| – | – | – | O=c1ccn([C@@H]2O[C@H](COP(=O)(O)OP(=O)(O)O)[C@@H](O)[C@H]2O)c(=O)[nH]1 [UDP] | pro-myelinating activity, in words (mature cells expressing MBP) [1]: increase the number of mature cells in culture expressing MBP |
| 2.27 ± 0.07 | 173.5 ± 0.5 | 119.8*** % | COc1ccc(N(C(=O)Cn2nnc3ccccc32)C(C(=O)NCC2CCCO2)c2ccc(F)cc2)cc1 (centres unmarked) [(IV), N-[1-(4-fluorophenyl)-2-oxo-2-[[(tetrahydro-2-furanyl)methyl]amino]ethyl]-N-(4-methoxyphenyl)-1H-benzotriazol-1-acetamide] | – |
| – | 144.8 ± 0.4 | 100% | CCCCC/C=C\C\C=C/C=C/C=C/[C@@H](SC[C@H](NC(=O)CC[C@H](N)C(=O)O)C(=O)NCC(=O)O)[C@@H](O)CCCC(=O)O [LTC4, reference compound] | response in [35S]GTPγS binding in control-vector cells [2]: unable to induce a response |
| 3.67 ± 0.51 | 206.8 ± 8.3 | 142.8*** % | COCCn1nnnc1C(c1cc2cc(OC)ccc2[nH]c1=O)N(CCc1ccccc1)Cc1ccccc1 (centres unmarked) [(II), 6-methoxy-3-[[1-(2-methoxyethyl)-1H-tetrazol-5-yl][(2-phenylethyl)(phenylmethyl)-amino]methyl]-2(1H)-quinolinone] | – |
| – | – | – | CSCCNc1nc(SCCC(F)(F)F)nc2c1ncn2[C@@H]1O[C@H](COP(=O)(O)OP(=O)(O)C(Cl)(Cl)P(=O)(O)O)[C@@H](O)[C@H]1O [cangrelor, reference compound] | type of antagonism on concentration-response curves of compound of formula (I) (human receptor GPR17; curves of compound (I) in presence of different concentrations of the antagonist (FIG. 1 C, D)): competitive antagonist |
| – | – | – | CCCCC/C=C\C\C=C/C=C/C=C/[C@@H](SC[C@H](N)C(=O)O)[C@@H](O)CCCC(=O)O [LTE4] | pro-myelinating activity, in words (mature cells expressing MBP) [1]: increase the number of mature cells in culture expressing MBP |
